According to article PMC7031302, “Design and synthesis of new energy restriction mimetic agents: Potent anti-tumor activities of hybrid motifs of aminothiazoles and coumarins” (Scientific Reports, 2020):

Legend:
[1] = test system: normal fibroblast cell line (F180); assay: MTT cell viability, normal fibroblasts F180; type: cell-based; conditions: Homo sapiens, read-out: IC50 on normal cells
Description: The potential cytotoxicity of 24 candidate compounds was initially evaluated at a single concentration level (5 μM). Then a full dose-response curve was plotted for each compound against different colorectal cancer cell lines (HCT116 and HT-29) by MTT assay after 72 h treatments. 4-hydroxycoumarin, OSU-CG5, and OSU-CG12 were used as positive controls. […] Compounds 9b, 9c, 9f, 9i, 11b, and 11c were selected for further studies to determine the full dose-response survival curves using different concentrations (0.1–20 µM) against CRC cell lines and normal fibroblast cell line (F180) at different time points (Fig. 2A–2F and supplementary material Page S63 and S64).
Human colorectal carcinoma cell lines (HCT116) and (HT-29) were obtained from the European Collection of Cell Cultures (ECACC, UK). The cell lines were cultured in Roswell Park Memorial Institute medium (RPMI-1640, Sigma-Aldrich-St. Louis, MO, USA) supplemented with 10% fetal bovine serum (Sigma-Aldrich-St. Louis, MO, USA) and 1% penicillin/streptomycin (Sigma-Aldrich- Louis, MO, USA). […]
Cell viability was assessed using, 3-(4,5-dimethylthiazol-2-yl)-2,5-diphenyltetrazolium bromide (MTT) assay as previously described. […] The reduced MTT crystals were solubilized in 200 µl/well of DMSO and the absorbance was measured at 570 nm using a microplate reader (Thermo-Scientific, Vantaa, Finland).

[2] = test system: HT-29; assay: ROS-Glo H2O2 assay, HT-29; type: cell-based, Human; conditions: HT-29, 6 h incubation
Text: According to previous studies, ERMAs inhibited glucose utilization in cancer cells[13],[19]. Therefore, we investigated glucose uptake (Fig. 5A) upon treatment with 9b and 9f in HT-29 and HCT116 cells at different concentrations based on the IC50 of each compound. […] This effect is known to result in the accumulation of reactive oxygen species (ROS) and could play a role in glucose deprivation-induced cytotoxicity and oxidative stress in cancer cells. […] The observed increase in ROS levels could lead to oxidative stress and extensive cell death in the absence of NADPH detoxification.
NADPH/NADP+ and ROS concentrations were measured using the NADP/NADPH-Glo Assay Kit (Promega, Madison, WI, USA) and ROS-Glo H2O2 Assay (Promega, Madison, WI, USA), respectively, based on the manufacturer instructions. In NADPH/NADP+ assay, CRC cells were seeded into a 96-well flat-bottomed plate and incubated overnight. On the following day, cells were treated with the testing compound or vehicle for 48 h. At the endpoint of treatment, the media were aspirated and replaced with 60 µl PBS/well, then cells were lysed in 60 µl base solution with 1% dodecyl (trimethyl) ammonium bromide (Sigma-Aldrich-St. Louis, MO, USA). […] Luminescence was measured after 30 minutes using Varioskan Flash multimode reader (Thermo Scientific). […] Luminescence was measured after 20 min incubation at room temperature.

SMILES | IC50 [1] [µM] | generation of hydrogen peroxide (H2O2) and ROS [2]
Cc1cc(=O)oc2cc(Nc3nc(-c4cccc([N+](=O)[O-])c4)cs3)ccc12 [Compound 9f, 4-Methyl-7-(4-(3-Nitrophenyl)thiazol-2-ylamino)-2H-chromen-2-one] | 7.97 | –
Cc1cc(=O)oc2cc(Nc3nc(-c4ccc(Br)cc4)cs3)ccc12 [Compound 9b, 7-(4-(4-Bromophenyl)thiazol-2-ylamino)-4-methyl-2H-chromen-2-one] | – | significantly increased
